According to patent US11066414B2, “Cot modulators and methods of use thereof” (Gilead Sciences, Inc., priority 2015, dated 2021):
Read-outs that look alike come from different tables or passages of the source.

Legend:
TNFα = assay: Cot Monocyte TNFα Cell Based Assay
Description: The cell suspension was then plated at a density of 5,000 cells/well onto black 384 well Greiner clear bottom plates. Plates were pre-spotted with test compounds and serially diluted in DMSO where 200 nL/well were delivered using the Echo 550 acoustic liquid dispenser (Labcyte®) for a final DMSO concentration of 0.5%. Plated cells were treated with compound for 1 hour at 37° C. Cells were then stimulated with 50 pg/ml of LPS (Sigma) excluding outside columns of plate used for unstimulated cell control wells. Cells were incubated for an additional 4 hours at 37° C. Cells were then spun out of the media and 5 μl of sample were taken and analyzed for total TNFα content using the TR-FRET Human TNFα detection system (CisBio). This system utilizes two labeled antibodies (cryptate and XL665) that bind to two different epitopes of the TNFα molecule and produce FRET signal proportional to the concentration of TNFα in the sample. […] Plates were covered with clear seals and incubated at room temp overnight. […] Percent of control was calculated as follows: % Control=100×(RatioSample−Ratio0% Stimulation)/(Ratio100% Stimulation−Ratio0% Stimulation) where unstimulated cells (0% stimulation) were the negative control and stimulated cells (100% stimulation) were used as the positive control.

Human Cot = Human Cot (Homo sapiens (Human), UniProt P41279); assay: High Throughput Cot Biochemical Assay
[1] = Homo sapiens, Monocyte, read-out: EC50 TNF, LPS-stimulated human monocytes, TNFα
[2] = IC50 HTRF, Cot HTRF (TR-FRET) biochemical assay
[3] = read-out: EC50 TNF, LPS-stimulated human monocytes, TNFα TR-FRET
[4] = read-out: IC50 HTRF, Cot HTRF (TR-FRET KinEASE) biochemical assay, 400 μM ATP
[5] = Homo sapiens, Monocyte, read-out: EC50 TNF, LPS-stimulated human monocytes, TNFα TR-FRET
[6] = IC50 HTRF, Cot HTRF (TR-FRET KinEASE) biochemical assay, 400 μM ATP

Human Cot, sequence (P41279 30-397): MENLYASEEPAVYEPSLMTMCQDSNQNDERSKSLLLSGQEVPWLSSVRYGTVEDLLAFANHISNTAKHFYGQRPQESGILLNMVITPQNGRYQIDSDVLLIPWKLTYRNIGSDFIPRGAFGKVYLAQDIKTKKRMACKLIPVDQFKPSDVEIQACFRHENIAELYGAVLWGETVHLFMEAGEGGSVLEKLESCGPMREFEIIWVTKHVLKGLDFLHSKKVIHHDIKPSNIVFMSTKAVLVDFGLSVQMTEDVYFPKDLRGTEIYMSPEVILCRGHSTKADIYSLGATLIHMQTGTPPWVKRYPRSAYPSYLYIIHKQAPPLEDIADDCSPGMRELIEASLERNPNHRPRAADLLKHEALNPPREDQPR

| SMILES | EC50 (TNFα; [1]) [nM] | IC50 (Human Cot; [2]) [nM] | further results |
| --- | --- | --- | --- |
| Cc1nc(F)ccc1[C@H](Nc1cc(C#N)c2ncc(C#N)c(NCC(C)(C)C)c2c1)c1cn(C(F)(F)CO)nn1 [Example 661, (S)-6-(((1-(1,1-difluoro-2-hydroxyethyl)-1 H-1,2,3-triazol-4-yl)(6-fluoro-2-methylpyridin-3-yl)methyl)amino)-4-(neopentylamino)quinoline-3,8-dicarbonitrile] | 103 | 2 | – |
| COCCOCCn1cc([C@@H](Nc2cc(Cl)c3ncc(C#N)c(Nc4ccc(F)c(Cl)c4)c3c2)c2cccnc2)nn1 [Example 340, (S)-8-chloro-4-((3-chloro-4-fluorophenyl)amino)-6-(((1-(2-(2-methoxyethoxy)ethyl)-1H-1,2,3-triazol-4-yl)(pyridin-3-yl)methyl)-amino)quinoline-3-carbonitrile] | 328 | 8 | – |
| [2H][C@](Nc1cc(Cl)c2ncc(C#N)c(Nc3ccc(OC)c(Cl)c3)c2c1)(c1ccc(F)nc1)c1cn(C2CC2)nn1 [Example 96, (S)-8-chloro-4-((3-chloro-4-methoxyphenyl)amino)-6-(((1-cyclopropyl-1H-1,2,3-triazol-4-yl)(6-fluoropyridin-3-yl)methyl-d)amino)quinoline-3-carbonitrile] | 173 | 11 | – |
| Cc1nc(F)ccc1[C@@H](Nc1cc(Cl)c2ncc(C#N)c(NCC(C)(C)C)c2c1)c1cn(C2(C(F)F)CC2)nn1 [Example 509, (R)-8-chloro-6-(((1-(1-(difluoromethyl)-cyclopropyl)-1H-1,2,3-triazol-4-yl)(6-fluoro-2-methylpyridin-3-yl)methyl)amino)-4-(neopentylamino)quinoline-3-carbonitrile] | 1000 | 267 | – |
| [2H]C([2H])(Nc1c(C#N)cnc2c(Cl)cc(N[C@H](c3cn(C4(C(F)F)CC4)nn3)c3ccc(F)nc3C)cc12)C(C)(C)C [Example 501, (S)-8-chloro-6-(((1-(1-(difluoromethyl)-cyclopropyl)-1H-1,2,3-triazol-4-yl)(6-fluoro-2-methylpyridin-3-yl)methyl)amino)-4-((2,2-dimethylpropyl-1,1-d2)amino)-quinoline-3-carbonitrile] | 55 | 3 | – |
| CC[C@@H](Nc1c(C#N)cnc2c(C#N)cc(N[C@H](c3cn(C4CC4)nn3)c3cccc4ncsc34)cc12)c1ccccc1 [Example 411, 6-(((S)-benzo[d]thiazol-7-yl(1-cyclopropyl-1H-1,2,3-triazol-4-yl)methyl)amino)-4-(((R)-1-phenylpropyl)amino)quinoline-3,8-dicarbonitrile] | 76 | 5 | – |
| CCN1CCC(n2cc([C@@H](Nc3cc(Cl)c4ncc(C#N)c(Nc5ccc(F)c(Cl)c5)c4c3)c3ccc(Cl)nc3)nn2)CC1 [Example 379, (S)-8-chloro-4-((3-chloro-4-fluoro-phenyl)amino)-6-(((6-chloropyridin-3-yl)(1-(1-ethylpiperidin-4-yl)-1H-1,2,3-triazol-4-yl)methyl)amino)quinoline-3-carbonitrile] | 179 | 6 | – |
| COc1nccc2c([C@H](Nc3cc(Cl)c4ncc(C#N)c(NCC(C)(C)C)c4c3)c3cn(C45CC(C4)C5)nn3)cccc12 [Example 911, (S)-6-(((1-(bicyclo[1.1.1]pentan-1-yl)-1H-1,2,3-triazol-4-yl)(1-methoxylsoquinolin-5-yl)methyl)amino)-8-chloro-4-(neopentylamino)quinoline-3-carbonitrile] | – | – | EC50 (TNFα; [3]): 85 nM; IC50 (Human Cot; [4]): 7 nM |
| CC(C)(C)N1CCC(n2cc([C@@H](Nc3cc(Cl)c4ncc(C#N)c(Nc5ccc(F)c(Cl)c5)c4c3)c3csc4ccccc34)nn2)CC1 [Example 351, (S)-6-((benzo[b]thiophen-3-yl(1-(1-(tert-butyl)piperidin-4-yl)-1H-1,2,3-triazol-4-yl)methyl)amino)-8-chloro-4-((3-chloro-4-fluorophenyl)amino)-quinoline-3-carbonitrile] | 744 | 10 | – |
| Cc1nc(F)ccc1[C@H](Nc1cc(Cl)c2ncc(C#N)c(NCC(C)(C)C)c2c1)c1nnn(C2(C(F)F)CC2)c1I [Example 945, (S)-8-chloro-6-(((1-(1-(difluoromethyl)cyclopropyl)-5-iodo-1H-1,2,3-triazol-4-yl)(6-fluoro-2-methylpyridin-3-yl)methyl)amino)-4-(neopentylamino)quinoline-3-carbonitrile] | – | – | EC50 (TNFα; [5]): 142 nM; IC50 (Human Cot; [6]): 17 nM |
| CC(C)(C)CNc1c(C#N)cnc2c(Cl)cc(N[C@H](c3cn(C4(C5CC5)CC4)nn3)c3cccc4ncccc34)cc12 [Example 691, (S)-6-(((1-([1,1′-bi(cyclopropan)]-1-yl)-1H-1,2,3-triazol-4-yl)(quinolin-5-yl)methyl)amino)-8-chloro-4-(neopentylamino)quinoline-3-carbonitrile] | 66 | 6 | – |
| Cc1nc(F)ccc1[C@H](Nc1cc(Cl)c2ncc(C#N)c(NCC(C)(C)C)c2c1)c1cn(C2(C(=O)O)CC2)nn1 [Example 517, (S)-1-(4-(((8-chloro-3-cyano-4-(neopentylamino)quinolin-6-yl)amino)(6-fluoro-2-methylpyridin-3-yl)methyl)-1H-1,2,3-triazol-1-yl)cyclopropane-1-carboxylic acid] | 1000 | 3 | – |
| COc1nccc2c([C@H](Nc3cc(Cl)c4ncc(C#N)c(NCC(C)(C)C(F)(F)F)c4c3)c3cn(C4(C(F)F)CC4)nn3)cccc12 [Example 934, (S)-8-chloro-6-(((1-(1-(difluoromethyl)cyclopropyl)-1H-1,2,3-triazol-4-yl)(1-methoxylsoquinolin-5-yl)methyl)amino)-4-((3,3,3-trifluoro-2,2-dimethylpropyl)amino)quinoline-3-carbonitrile] | – | – | EC50 (TNFα; [3]): 81 nM; IC50 (Human Cot; [4]): 7 nM |
| Cn1ccc2c([C@H](Nc3cc(C#N)c4ncc(C#N)c(NCC(C)(C)C(F)(F)F)c4c3)c3cn(C4(C(F)(F)F)CC4)nn3)cccc2c1=O [Example 886, (S)-6-(((2-methyl-1-oxo-1,2-dihydroisoquinolin-5-yl)(1-(1-(trifluoromethyl)-cyclopropyl)-1H-1,2,3-triazol-4-yl)methyl)-amino)-4-((3,3,3-trifluoro-2,2-dimethylpropyl)-amino)quinoline-3,8-dicarbonitrile] | – | – | EC50 (TNFα; [5]): 30 nM; IC50 (Human Cot; [6]): 3 nM |
| [2H]C(Nc1cc(Cl)c2ncc(C#N)c(NCC(C)(C)C)c2c1)(c1cn(C2CC2)nn1)c1ccc(Cl)nc1C (centres unmarked) [Example 125, 8-chloro-6-(((6-chloro-2-methylpyridin-3-yl)(1-cyclopropyl-1H-1,2,3-triazol-4-yl)methyl-d)amino)-4-(neopentylamino)quinoline-3-carbonitrile] | 78 | 3 | – |
| Cn1ncc2c([C@H](Nc3cc(C#N)c4ncc(C#N)c(NCC(C)(C)C)c4c3)c3cn(C4(C(F)(F)F)CC4)nn3)cccc21 [Example 557, (S)-6-(((1-methyl-1H-indazol-4-yl)(1-(1-(trifluoro-methyl)cyclopropyl)-1H-1,2,3-triazol-4-yl)methyl)amino)-4-(neopentylamino)-quinoline-3,8-dicarbonitrile] | 117 | 5 | – |
| N#Cc1cnc2c(Cl)cc(N[C@@H](c3cccnc3)c3cn(C4COC4)nn3)cc2c1Nc1cnc(F)c(F)c1 [Example 199, (S)-8-chloro-4-((5,6-difluoropyridin-3-yl)amino)-6-(((1-(oxetan-3-yl)-1H-1,2,3-triazol-4-yl)(pyridin-3-yl)methyl)amino)quinoline-3-carbonitrile] | 2520 | 9 | – |
| N#CCC[C@@H](Nc1c(C#N)cnc2c(Cl)cc(N[C@@H](c3cccnc3)c3cn(C4CC4)nn3)cc12)c1ccccc1 [Example 75, 8-chloro-4-(((R)-3-cyano-1-phenylpropyl)amino)-6-(((S)-(1-cyclopropyl-1H-1,2,3-triazol-4-yl)(pyridin-3-yl)methyl)amino)quinoline-3-carbonitrile] | 79 | 2 | – |
| Cc1nc([C@H](Nc2cc(C#N)c3ncc(C#N)c(NCC(C)(C)C)c3c2)c2cn(C3(C(F)F)CC3)nn2)c(C)o1 [Example 674, (S)-6-(((1-(1-(difluoromethyl)-cyclopropyl)-1H-1,2,3-triazol-4-yl)(2,5-dimethyloxazol-4-yl)methyl)amino)-4-(neopentylamino)quinoline-3,8-dicarbonitrile] | 301 | 22 | – |
| N#Cc1cnc2c(Cl)cc(N[C@H](c3cn(C4COC4)nn3)c3ccc(Cl)nc3Cl)cc2c1Nc1ccc(F)c(Cl)c1 [Example 322, (S)-8-chloro-4-((3-chloro-4-fluorophenyl)amino)-6-(((2,6-dichloro-pyridin-3-yl)(1-(oxetan-3-yl)-1H-1,2,3-triazol-4-yl)methyl)amino)quinoline-3-carbonitrile] | 369 | 33 | – |
| CC(C)n1cc([C@@H](Nc2cc(Cl)c3ncc(C#N)c(Nc4ccc(F)c(Cl)c4)c3c2)c2ccnn2C)nn1 [Example 304, (S)-8-chloro-4-((3-chloro-4-fluorophenyl)amino)-6-(((1-isopropyl-1H-1,2,3-triazol-4-yl)(1-methyl-1H-pyrazol-5-yl)methyl)amino)quinoline-3-carbonitrile] | 234 | 6 | – |
| CC(C)(C)CNc1c(C#N)cnc2c(Cl)cc(N[C@H](c3cn(C4(C(F)(F)F)CC4)nn3)c3cccc4[nH]c(C(F)(F)F)nc34)cc12 [Example 972, (S)-8-chloro-4-(neopentylamino)-6-(((2-(trifluoromethyl)-1H-benzo[d]imidazol-4-yl)(1-(1-(trifluoromethyl)cyclopropyl)-1H-1,2,3-triazol-4-yl)methyl)amino)quinoline-3-carbonitrile] | – | – | EC50 (TNFα; [5]): 1000 nM; IC50 (Human Cot; [6]): 1820 nM |
